What was measured:
rat NaCT = molecular target: T1, rat NaCT (Rattus norvegicus, UniProt Q8CJ44); test: Uptake via rat NaCT expressed in HRPE cells; type: cell-based
T1 sequence (Q8CJ44 1-572): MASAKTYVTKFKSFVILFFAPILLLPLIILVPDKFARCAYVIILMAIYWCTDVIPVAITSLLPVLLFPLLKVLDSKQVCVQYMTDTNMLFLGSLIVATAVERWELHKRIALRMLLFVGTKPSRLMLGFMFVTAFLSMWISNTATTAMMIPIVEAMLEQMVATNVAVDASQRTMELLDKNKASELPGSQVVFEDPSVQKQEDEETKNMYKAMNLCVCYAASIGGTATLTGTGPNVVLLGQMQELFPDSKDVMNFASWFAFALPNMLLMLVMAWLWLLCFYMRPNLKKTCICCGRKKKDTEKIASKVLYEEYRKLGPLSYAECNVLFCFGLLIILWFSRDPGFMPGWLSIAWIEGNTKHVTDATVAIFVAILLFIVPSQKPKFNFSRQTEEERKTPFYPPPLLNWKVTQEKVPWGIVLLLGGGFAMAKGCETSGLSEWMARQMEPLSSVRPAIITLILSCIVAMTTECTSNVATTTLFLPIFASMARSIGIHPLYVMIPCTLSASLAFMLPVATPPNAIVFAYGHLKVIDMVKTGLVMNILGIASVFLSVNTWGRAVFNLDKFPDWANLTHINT

human NaCT = human NaCT (Homo sapiens, UniProt Q86YT5); test: Uptake via human NaCT expressed in HRPE cells; type: cell-based
mouse NaCT = molecular target: T2, mouse NaCT (Mus musculus, UniProt Q67BT3); test: Transport via mouse NaCT expressed in HRPE cells; type: cell-based; conditions: Li+ 2 mM, valproate 0.6 μM, carbamazepine 50 μM
T2 sequence (Q67BT3 1-572): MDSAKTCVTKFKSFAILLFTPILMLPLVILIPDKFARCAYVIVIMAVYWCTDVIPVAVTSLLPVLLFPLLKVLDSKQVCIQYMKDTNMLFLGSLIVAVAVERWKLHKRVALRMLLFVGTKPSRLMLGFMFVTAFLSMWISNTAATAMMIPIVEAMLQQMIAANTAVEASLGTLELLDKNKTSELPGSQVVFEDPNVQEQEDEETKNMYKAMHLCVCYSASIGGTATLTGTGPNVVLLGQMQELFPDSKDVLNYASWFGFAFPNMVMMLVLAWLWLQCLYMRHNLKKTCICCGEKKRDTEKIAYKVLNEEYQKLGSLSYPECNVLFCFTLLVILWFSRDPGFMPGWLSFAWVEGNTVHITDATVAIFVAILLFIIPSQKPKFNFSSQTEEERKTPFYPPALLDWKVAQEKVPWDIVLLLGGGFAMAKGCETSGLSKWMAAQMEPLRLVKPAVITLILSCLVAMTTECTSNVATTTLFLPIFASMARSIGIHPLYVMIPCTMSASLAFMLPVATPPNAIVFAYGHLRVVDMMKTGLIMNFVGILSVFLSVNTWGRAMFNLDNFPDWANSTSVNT

zebrafish NaCT = zebrafish NaCT (Danio rerio, UniProt A0A2R8QQN0, K78Q); test: Citrate uptake via zebrafish NaCT expressed in HRPE cells; type: cell-based
NaCT in HepG2 cells = molecular target: T3, NaCT in HepG2 cells (Homo sapiens, UniProt Q86YT5); test: Citrate uptake in HepG2 cells (constitutively expressed NaCT); type: cell-based; conditions: Li+ 2 mM, valproate 0.6 μM, carbamazepine 50 μM
T3 construct: the effect of Li^+ on constitutively expressed NaCT in human liver cells was studied; host or cells: HepG2
Description: (§1) Uptake measurement in human liver cell lines. The human liver cell lines (HepG2 and Huh-7) were cultured to confluency in 24-well culture plates using appropriate culture medium. The HepG2 cell line was obtained from American Type Culture Collection (Manasses, Va.). The Huh-7 cell line (Bode et al., (2002) Am. J. Physiol. 283, G1062-G1073) was provided by Dr. Barrie P. Bode (St. Louis University, St. Louis, Mo.). Uptake measurements in monolayer cultures of these cells were measured as described above for the heterologously expressed NaCTs.

NaCT in Huh-7 cells = molecular target: T4, NaCT in Huh-7 cells (Homo sapiens, UniProt Q86YT5); test: Citrate uptake in Huh-7 cells (constitutively expressed NaCT); type: cell-based; conditions: Li+ 2 mM
T4 construct: the effect of Li^+ on constitutively expressed NaCT in human liver cells was studied; endogenous in cells; host or cells: Huh-7 (gift of Dr. Barrie P. Bode)
Description: as §1

HepG2 cells = test: Incorporation of citrate and acetate into cellular lipids; type: cell-based, human; conditions: 24 hours
Source text: The cellular lipids were then extracted by n-hexane/isopropanol (3:2, v/v) as described by Schamagl et al. (Scharnagl et al., (2001) Biochem. Pharmacol. 62, 1545-1555).

[1] = molecular target: Phe→Leu mutant of human NaCT (Homo sapiens, UniProt Q86YT5, F500L); test: Citrate uptake via Phe→Leu mutant of human NaCT in HRPE cells; type: cell-based; conditions: citrate 20 μM; increasing Li+
[2] = molecular target: chimeric transporter (human NaCT 496-516 replaced with rat NaCT 500-520) (Homo sapiens, UniProt Q86YT5, F500L/T516A); test: Citrate uptake via human/rat chimeric NaCT in HRPE cells; type: cell-based; conditions: Li+ 10 mM; citrate 20 μM
[3] = patients under treatment; cited from earlier work
ceNaCT = molecular target: T5, ceNaCT (Caenorhabditis elegans, UniProt P32739, I91S/L182M); test: Uptake via ceNaCT expressed in HRPE cells; conditions: Li+ 2 mM, valproate 0.6 μM, carbamazepine 50 μM
T5 sequence (P32739 1-551 I91S/L182M): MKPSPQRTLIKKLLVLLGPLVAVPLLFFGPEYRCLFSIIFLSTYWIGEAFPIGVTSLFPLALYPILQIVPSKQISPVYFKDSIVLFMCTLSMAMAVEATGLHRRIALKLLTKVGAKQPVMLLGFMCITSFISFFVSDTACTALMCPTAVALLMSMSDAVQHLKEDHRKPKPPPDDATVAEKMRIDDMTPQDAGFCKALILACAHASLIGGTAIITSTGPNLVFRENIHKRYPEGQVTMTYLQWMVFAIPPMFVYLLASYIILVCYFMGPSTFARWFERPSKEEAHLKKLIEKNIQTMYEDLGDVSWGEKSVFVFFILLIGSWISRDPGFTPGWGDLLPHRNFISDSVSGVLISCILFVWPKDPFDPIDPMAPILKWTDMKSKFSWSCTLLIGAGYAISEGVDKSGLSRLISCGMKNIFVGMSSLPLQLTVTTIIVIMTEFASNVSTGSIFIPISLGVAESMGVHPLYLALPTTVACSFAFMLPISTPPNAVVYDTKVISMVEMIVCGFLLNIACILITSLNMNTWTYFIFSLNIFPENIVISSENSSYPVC

[4] = Li+ 2 mM, valproate 0.6 μM, carbamazepine 50 μM

Chain of human NaCT (Q86YT5 whole entry): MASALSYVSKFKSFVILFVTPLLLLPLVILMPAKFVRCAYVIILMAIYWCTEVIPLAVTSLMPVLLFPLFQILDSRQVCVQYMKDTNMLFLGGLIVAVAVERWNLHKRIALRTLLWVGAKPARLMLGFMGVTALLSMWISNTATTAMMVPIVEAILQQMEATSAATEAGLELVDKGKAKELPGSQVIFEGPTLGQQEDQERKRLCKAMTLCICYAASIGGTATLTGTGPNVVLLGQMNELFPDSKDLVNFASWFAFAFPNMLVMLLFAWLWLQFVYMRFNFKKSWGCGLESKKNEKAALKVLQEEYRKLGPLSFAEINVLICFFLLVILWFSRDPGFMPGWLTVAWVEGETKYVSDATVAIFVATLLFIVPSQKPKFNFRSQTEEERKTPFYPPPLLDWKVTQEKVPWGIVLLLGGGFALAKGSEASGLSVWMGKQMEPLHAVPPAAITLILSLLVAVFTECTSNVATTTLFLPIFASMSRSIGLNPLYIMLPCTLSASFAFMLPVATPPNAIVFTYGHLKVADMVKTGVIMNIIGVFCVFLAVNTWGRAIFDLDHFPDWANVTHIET
T4 sequence (Q86YT5 whole entry): as above
T3 sequence (Q86YT5 whole entry): as above
Chain of zebrafish NaCT (A0A2R8QQN0 2-582 K78Q): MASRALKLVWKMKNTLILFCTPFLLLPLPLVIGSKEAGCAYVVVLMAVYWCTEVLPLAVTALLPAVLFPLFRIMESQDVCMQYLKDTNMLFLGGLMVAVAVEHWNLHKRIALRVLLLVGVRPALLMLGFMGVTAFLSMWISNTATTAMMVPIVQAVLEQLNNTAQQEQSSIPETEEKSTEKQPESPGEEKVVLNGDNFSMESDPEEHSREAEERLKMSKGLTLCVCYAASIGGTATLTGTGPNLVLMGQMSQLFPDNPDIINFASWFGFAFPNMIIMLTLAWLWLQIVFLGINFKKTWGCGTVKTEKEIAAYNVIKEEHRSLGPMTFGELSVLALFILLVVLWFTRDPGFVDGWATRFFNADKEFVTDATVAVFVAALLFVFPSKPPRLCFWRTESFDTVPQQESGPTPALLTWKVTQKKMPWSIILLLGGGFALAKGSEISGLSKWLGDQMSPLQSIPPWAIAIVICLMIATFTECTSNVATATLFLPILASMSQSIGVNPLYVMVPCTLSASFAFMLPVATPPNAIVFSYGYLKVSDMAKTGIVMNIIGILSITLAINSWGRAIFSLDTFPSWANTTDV
Chain of chimeric transporter (human NaCT 496-516 replaced with rat NaCT 500-520) (Q86YT5 whole entry F500L/T516A): as the sequence (Q86YT5 whole entry) above, with F500L, T516A counted along it
Chain of Phe→Leu mutant of human NaCT (Q86YT5 whole entry F500L): as the sequence (Q86YT5 whole entry) above, with F500L counted along it

Compound: [Li+] [Li^+, lithium]
- Citrate uptake, rNaCT (rat NaCT; [4]): 92.3 ± 8.4 pmol/10^6 cells/min
- Citrate uptake, rNaCT, percent of corresponding control (rat NaCT; [4]): 62%
- IC50 (rat NaCT; read-out: IC50 for inhibition of citrate uptake via rat NaCT, citrate 20 μM): 2100 ± 800 µM
- Increase of affinity for citrate (human NaCT; 10 mM Li+): approximately 7 fold
- Stimulation of human NaCT by Li+ (human NaCT; 10 mM Li+, 60 mM Na+): 7 fold
- Stimulation of human NaCT by Li+ (human NaCT; 10 mM Li+, 140 mM Na+): 3 fold
- Citrate uptake, hNaCT (human NaCT; [4]): 105.2 ± 11.6 pmol/10^6 cells/min
- Citrate uptake, hNaCT, percent of corresponding control (human NaCT; [4]): 203%
- Stimulation of human NaCT activity (human NaCT; Li+ 2.5 mM): 2.4 fold
- EC50 (human NaCT; read-out: Concentration of Li+ needed for half-maximal stimulation of citrate uptake, citrate 20 μM): 2100 ± 700 µM
- Citrate uptake, mNaCT (mouse NaCT): 29.4 ± 1.7 pmol/10^6 cells/min
- Citrate uptake, mNaCT, percent of corresponding control (mouse NaCT): 69%
- Citrate uptake, zfNaCT (zebrafish NaCT): 298.0 ± 12.6 (61) pmol/10^6 cells/min
- Citrate uptake, zfNaCT, percent of corresponding control (zebrafish NaCT): 298.0 ± 12.6 (61) percent
- Citrate uptake, HepG2 cells (NaCT in HepG2 cells): 21.2 ± 0.6 pmol/min/mg protein
- Citrate uptake, HepG2 cells, percent of corresponding control (NaCT in HepG2 cells): 222%
- Citrate uptake, Huh-7 cells (NaCT in Huh-7 cells): 20.0 ± 0.5 pmol/min/mg protein
- Citrate uptake, Huh-7 cells, percent of corresponding control (NaCT in Huh-7 cells): 196%
- Stimulation of incorporation of [^14C]citrate into lipid fraction (HepG2 cells; Li+ 2 mM): 2.6±0.1 fold
- Effect on incorporation of [^14C]acetate into lipids (HepG2 cells; Li+ 2 or 10 mM): did not have any effect
- Effect of Li+ on transport function of the mutant [1]: not affected
- Effect of Li+ on activity of the chimeric transporter [2]: not affected
- Plasma concentrations / therapeutic plasma levels in humans [3]: 800 to 2000 µM
- Citrate uptake, ceNaCT (ceNaCT): 43.6 ± 0.8 pmol/10^6 cells/min
- Citrate uptake, ceNaCT, percent of corresponding control (ceNaCT): 100%
